From ChEMBL document CHEMBL5727375, “Apoptosis signal-regulating kinase 1 inhibitors and methods of use thereof” (2019)

Biological target: T1, Mitogen-activated protein kinase kinase kinase 5 (Homo sapiens, UniProt Q99683)
T1 sequence (Q99683 whole entry): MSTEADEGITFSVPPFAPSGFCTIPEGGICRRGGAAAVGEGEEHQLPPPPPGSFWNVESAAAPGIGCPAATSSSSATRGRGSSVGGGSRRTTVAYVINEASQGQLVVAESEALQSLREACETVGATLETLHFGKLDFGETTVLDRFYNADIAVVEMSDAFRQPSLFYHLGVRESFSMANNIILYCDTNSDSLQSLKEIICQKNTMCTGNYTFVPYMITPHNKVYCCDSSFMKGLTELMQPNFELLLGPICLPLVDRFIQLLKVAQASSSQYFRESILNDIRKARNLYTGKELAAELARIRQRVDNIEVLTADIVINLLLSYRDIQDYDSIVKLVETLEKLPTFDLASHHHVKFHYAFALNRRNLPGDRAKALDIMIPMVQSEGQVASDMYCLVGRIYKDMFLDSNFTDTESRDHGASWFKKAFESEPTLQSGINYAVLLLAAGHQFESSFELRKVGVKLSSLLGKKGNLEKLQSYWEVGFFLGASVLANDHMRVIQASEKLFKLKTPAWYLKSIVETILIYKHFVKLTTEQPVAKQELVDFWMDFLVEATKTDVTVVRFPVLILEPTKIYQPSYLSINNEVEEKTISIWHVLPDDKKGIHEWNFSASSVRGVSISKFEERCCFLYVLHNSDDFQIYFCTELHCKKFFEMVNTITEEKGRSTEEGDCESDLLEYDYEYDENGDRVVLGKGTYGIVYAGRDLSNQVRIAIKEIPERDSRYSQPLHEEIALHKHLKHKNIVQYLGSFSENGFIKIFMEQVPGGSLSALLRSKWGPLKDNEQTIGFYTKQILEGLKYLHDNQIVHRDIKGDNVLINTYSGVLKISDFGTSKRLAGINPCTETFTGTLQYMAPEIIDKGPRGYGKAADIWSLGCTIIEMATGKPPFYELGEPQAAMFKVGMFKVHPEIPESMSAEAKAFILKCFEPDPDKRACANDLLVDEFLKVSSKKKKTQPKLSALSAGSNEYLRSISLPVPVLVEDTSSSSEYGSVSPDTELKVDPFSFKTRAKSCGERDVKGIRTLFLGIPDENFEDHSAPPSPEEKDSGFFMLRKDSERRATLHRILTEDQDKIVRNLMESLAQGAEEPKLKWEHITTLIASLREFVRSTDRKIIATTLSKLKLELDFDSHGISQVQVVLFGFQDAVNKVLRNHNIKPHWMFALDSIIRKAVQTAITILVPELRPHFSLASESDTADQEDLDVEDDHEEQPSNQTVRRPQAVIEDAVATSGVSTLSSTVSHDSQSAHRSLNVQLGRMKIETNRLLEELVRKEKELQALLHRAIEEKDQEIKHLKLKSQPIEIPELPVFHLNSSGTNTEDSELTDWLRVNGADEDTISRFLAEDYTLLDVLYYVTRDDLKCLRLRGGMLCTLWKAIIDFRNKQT
Test: HTRF KinEASE Assay : HTRF KinEASE-STK is a generic method for measuring serine/threonine kinase activities using a time-resolved fluorescence resonance energy transfer (TR-FRET) immunoassay. The IC50 value for each compound was determined in the presence of compound (various concentration from 0 to 10 μM) and a fixed amount of ATP and peptide substrates. The test compound, 1 Um STK3 peptide substrate, and 5 Nm of ASK1 kinase are incubated with kinase reaction buffer containing 50 Mm HEPES Ph 7.5, 0.01% BRIJ-35, 10 Mm MgCl2, and 1 Mm EGTA for 30 minutes. 100 Um ATP is added to start kinase reaction and incubated for 3 hours. The STK3-antibody labeled with Eu3+-Cryptate and 125 Nm streptavidin-XL665 are mixed in a single addition with stop reagents provided by the Cisbio kit used to stop the kinase reaction. Fluorescence is detected using an Envision Multilabeled 2014 reader from PerkinElmer. The Fluorescence is measured at 615 nm (Cryptate) and 665 nm (XL665) and a ratio of 665 nm/615 nm is calculated for each well.

SMILES: CCOC(=O)N1Cc2cnc(C(=O)Nc3cccc(-c4nncn4C(C)C)n3)cc2C1
- IC50: 10 to 100 nM
